{"source": "PubChem BioAssay AID2060496", "about": "(Molecular Pharmacology Branch, DTP, NCI, 2025)", "tested_on": "276233-004-R-J1-PDC complex spheroid viability", "assay": "Anticancer human tumor 276233-004-R-J1-PDC patient-derived colon adenocarcinoma cell line growth inhibition [GQUAD]", "settings": "for viability, T/C: stronger effect = lower value", "description": "DNA G-quadruplex Stabilizer Agents in Combinations in Complex Spheroids\nA high-throughput screen of multi-cell type tumor spheroids was designed to identify active combinations of DNA G-quadruplex stabilizer agents and targeted small molecules. Complex spheroids include a stromal component modeled by human endothelial cells (HUVEC) and fibroblasts modeled by human mesenchymal stem cells (MSCs). The concentration ranges selected for each drug and investigational agent were based upon clinically achievable concentrations if the clinical Cmax of the agent was known.\nCompounds. The drugs and investigational agents: pidnarulex (CX-5461; NSC782164), APTO-253 (NSC789042), BRACO-19 (NSC847499), peposertib (NSC802822), ceralasertib (NSC780249), elimusertib (NSC800525), camonsertib (NSC841442), AZD-1390 (NSC803789), olaparib (NSC753686), talazoparib (NSC767125), ART-558 (NSC835418), sotorasib (NSC818433), MRTX-1133 (NSC836407), SN-38 (NSC673596), topotecan (NSC609699), etoposide (NSC141540), doxorubicin (NSC123127), gemcitabine (NSC613327), 5-fluorouracil (NSC19893), paclitaxel (NSC125973), vemurafenib (NSC761431), panobinostat (NSC761190), R-306465 (JNJ-16241199; NSC773264), adavosertib (NSC754352), TP-3654 (NSC805149), carboplatin (NSC241240), KSQ-4279 (NSC840948), and staurosporine (NSC755774) were obtained from the National Cancer Institute (NCI) Developmental Therapeutics Program Chemical Repository (34). The FDA-approved anticancer drug set is available from the NCI Developmental Therapeutics Program. […] The stock solutions were prepared in dimethyl sulfoxide (DMSO, Sigma-Aldrich, St. Louis, MO, cat. D2650) at 800-fold the tested concentration and stored at -70 degrees C prior to their use. All drugs and investigational agents were tested over a range starting from a high concentration at or near the clinical Cmax and decreasing in half-log increments. If the clinical Cmax for an agent had not been determined, the highest concentration tested was 10 microM.\n2.3 Cell Culture. All cells were maintained in an incubator at 37 degrees C and 5% CO2 with 95% humidity. The PDC lines were cultured according to standard operating procedures established by the NCI PDMR. All PDCs were thawed and cultured in Matrigel-coated flasks prepared with a working solution of 1X Ham's F-12 nutrient mix, without supplementation (Invitrogen, cat. 11765054), 100 U/mL penicillin-streptomycin (Invitrogen, cat. 15140122), and 2.5% Matrigel (Corning Inc., cat. 354248) for the first three passages. The 857933-349-R-J2-PDC line was cultured in 6C/Colon 1B media, which includes advanced DMEM/F-12 (Thermo Fisher Scientific, cat. 12634028), 10 mM HEPES (Thermo Fisher Scientific, cat. 15630080), 1X GlutaMAX supplement (Thermo Fisher Scientific, cat. 35050061), 0.1 mg/mL primocin (InvivoGen, cat. ant-pm-2), 10% defined fetal bovine serum, heat inactivated (HyClone Laboratories Inc., cat. SH30070.03HI), 50% L-WRN conditioned media (ATCC, cat. CRL-3276), 1.25 mM N-Acetyl-L-cysteine (Sigma-Aldrich, cat. A9165), 10 mM nicotinamide (Sigma-Aldrich, cat. N0636), 1X B-27 supplement (Thermo Fisher Scientific, cat. 17504044), 1X N-2 supplement (Thermo Fisher Scientific, cat. 17502048), 10 microM Y-27632 dihydrochloride (Tocris Bioscience, cat. 1254), and 50 ng/mL human EGF recombinant protein (Thermo Fisher Scientific, cat. PHG0311). The 485176-168-R4-J1-PDC line was cultured in Panc media, which includes all 6C/Colon 1B media components plus 100 ng/mL human FGF-10 (Thermo Fisher Scientific, cat. 100-26), 500 nM SB-431542 (Selleckchem, cat. S1067), and gastrin (Tocris, cat. 3006).\n[…]", "note": "“And” between values parts separate entries of the source, which are not always exact repeats. Identical values can stand only once.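 Also: spheroids exposed to drugs for seven days.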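 For viability, T/C in this document: 100% = DMSO vehicle control viability.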"}
{"smiles": "CC[C@@]1(O)C(=O)OCc2c1cc1n(c2=O)Cc2cc3c(CN(C)C)c(O)ccc3nc2-1", "values": [{"measurement": "viability, T/C", "setting": "compound 0.000999 µM", "result": "102% and 92.8% and 107%"}, {"measurement": "viability, T/C", "setting": "compound 0.00316 µM", "result": "95.6% and 106% and 94.4%"}, {"measurement": "viability, T/C", "setting": "compound 0.00999 µM", "result": "89.3% and 96.7% and 96.9%"}, {"measurement": "viability, T/C", "setting": "compound 0.0316 µM", "result": "97.6% and 112% and 79.8%"}, {"measurement": "viability, T/C", "setting": "compound 0.0999 µM", "result": "97.6% and 102% and 99.8%"}, {"measurement": "viability, T/C", "setting": "compound 0.316 µM", "result": "90.9% and 107% and 98.6%"}, {"measurement": "IC50", "setting": "curve of compound", "result": "> 0.316", "unit": "µM"}]}
{"smiles": "CC1COCCN1c1cc(-c2ccnn2C)c2ccnc(-c3ccn[nH]3)c2n1", "note": "(stereo unspecified) + Cc1[nH]c2ccc(F)cc2c1-c1nc2c3cccnc3c3ncccc3c2[nH]1", "values": [{"measurement": "IC50", "setting": "curve of first compound, second compound 0.0316 µM", "result": "> 10", "unit": "µM"}, {"measurement": "IC50", "setting": "curve of first compound, second compound 0.1 µM", "result": "> 10", "unit": "µM"}, {"measurement": "IC50", "setting": "curve of first compound, second compound 0.316 µM", "result": "> 10", "unit": "µM"}, {"measurement": "IC50", "setting": "curve of first compound, second compound 1 µM", "result": 7.21, "unit": "µM"}, {"measurement": "IC50", "setting": "curve of first compound, second compound 3.16 µM", "result": "< 0.0316", "unit": "µM"}, {"measurement": "IC50", "setting": "curve of first compound, second compound 10 µM", "result": "< 0.0316", "unit": "µM"}, {"measurement": "viability, T/C", "setting": "second compound 0.0316 µM, first compound 0.0316 µM", "result": 84.6, "unit": "%"}, {"measurement": "viability, T/C", "setting": "second compound 0.0316 µM, first compound 0.1 µM", "result": 69.4, "unit": "%"}, {"measurement": "viability, T/C", "setting": "second compound 0.0316 µM, first compound 0.316 µM", "result": 87, "unit": "%"}, {"measurement": "viability, T/C", "setting": "second compound 0.0316 µM, first compound 1 µM", "result": 70.5, "unit": "%"}, {"measurement": "viability, T/C", "setting": "second compound 0.0316 µM, first compound 3.16 µM", "result": 57.9, "unit": "%"}, {"measurement": "viability, T/C", "setting": "second compound 0.0316 µM, first compound 10 µM", "result": 56.3, "unit": "%"}, {"measurement": "viability, T/C", "setting": "second compound 0.1 µM, first compound 0.0316 µM", "result": 76.1, "unit": "%"}, {"measurement": "viability, T/C", "setting": "second compound 0.1 µM, first compound 0.1 µM", "result": 68, "unit": "%"}, {"measurement": "viability, T/C", "setting": "second compound 0.1 µM, first compound 0.316 µM", "result": 68.9, "unit": "%"}, {"measurement": "viability, T/C", "setting": "second compound 0.1 µM, first compound 1 µM", "result": 60, "unit": "%"}, {"measurement": "viability, T/C", "setting": "second compound 0.1 µM, first compound 3.16 µM", "result": 68.1, "unit": "%"}, {"measurement": "viability, T/C", "setting": "second compound 0.1 µM, first compound 10 µM", "result": 55.3, "unit": "%"}, {"measurement": "viability, T/C", "setting": "second compound 0.316 µM, first compound 0.0316 µM", "result": 90.5, "unit": "%"}, {"measurement": "viability, T/C", "setting": "second compound 0.316 µM, first compound 0.1 µM", "result": 87.7, "unit": "%"}, {"measurement": "viability, T/C", "setting": "second compound 0.316 µM, first compound 0.316 µM", "result": 71.2, "unit": "%"}, {"measurement": "viability, T/C", "setting": "second compound 0.316 µM, first compound 1 µM", "result": 60.3, "unit": "%"}, {"measurement": "viability, T/C", "setting": "second compound 0.316 µM, first compound 3.16 µM", "result": 57, "unit": "%"}, {"measurement": "viability, T/C", "setting": "second compound 0.316 µM, first compound 10 µM", "result": 59.7, "unit": "%"}, {"measurement": "viability, T/C", "setting": "second compound 1 µM, first compound 0.0316 µM", "result": 89.3, "unit": "%"}, {"measurement": "viability, T/C", "setting": "second compound 1 µM, first compound 0.1 µM", "result": 86.6, "unit": "%"}, {"measurement": "viability, T/C", "setting": "second compound 1 µM, first compound 0.316 µM", "result": 65.4, "unit": "%"}, {"measurement": "viability, T/C", "setting": "second compound 1 µM, first compound 1 µM", "result": 60.8, "unit": "%"}, {"measurement": "viability, T/C", "setting": "second compound 1 µM, first compound 3.16 µM", "result": 57.6, "unit": "%"}, {"measurement": "viability, T/C", "setting": "second compound 1 µM, first compound 10 µM", "result": 46.2, "unit": "%"}, {"measurement": "viability, T/C", "setting": "second compound 3.16 µM, first compound 0.0316 µM", "result": 48.1, "unit": "%"}, {"measurement": "viability, T/C", "setting": "second compound 3.16 µM, first compound 0.1 µM", "result": 48.5, "unit": "%"}, {"measurement": "viability, T/C", "setting": "second compound 3.16 µM, first compound 0.316 µM", "result": 53.9, "unit": "%"}, {"measurement": "viability, T/C", "setting": "second compound 3.16 µM, first compound 1 µM", "result": 45.1, "unit": "%"}, {"measurement": "viability, T/C", "setting": "second compound 3.16 µM, first compound 3.16 µM", "result": 44.1, "unit": "%"}, {"measurement": "viability, T/C", "setting": "second compound 3.16 µM, first compound 10 µM", "result": 32.5, "unit": "%"}, {"measurement": "viability, T/C", "setting": "second compound 10 µM, first compound 0.0316 µM", "result": 42, "unit": "%"}, {"measurement": "viability, T/C", "setting": "second compound 10 µM, first compound 0.1 µM", "result": 49.6, "unit": "%"}, {"measurement": "viability, T/C", "setting": "second compound 10 µM, first compound 0.316 µM", "result": 40.8, "unit": "%"}, {"measurement": "viability, T/C", "setting": "second compound 10 µM, first compound 1 µM", "result": 40.2, "unit": "%"}, {"measurement": "viability, T/C", "setting": "second compound 10 µM, first compound 3.16 µM", "result": 37.8, "unit": "%"}, {"measurement": "viability, T/C", "setting": "second compound 10 µM, first compound 10 µM", "result": 32.4, "unit": "%"}]}
{"smiles": "Nc1ccn(C2OC(CO)C(O)C2(F)F)c(=O)n1", "note": "(stereo unspecified)", "values": [{"measurement": "viability, T/C", "setting": "compound 0.0316 µM", "result": "86.2% and 88.9% and 100%"}, {"measurement": "viability, T/C", "setting": "compound 0.1 µM", "result": "76.2% and 97% and 92.5%"}, {"measurement": "viability, T/C", "setting": "compound 0.316 µM", "result": "76.6% and 97.1% and 85.7%"}, {"measurement": "viability, T/C", "setting": "compound 1 µM", "result": "69% and 83.3% and 72.7%"}, {"measurement": "viability, T/C", "setting": "compound 3.16 µM", "result": "83.3% and 79% and 97.7%"}, {"measurement": "viability, T/C", "setting": "compound 10 µM", "result": "71.6% and 68.4% and 75.5%"}, {"measurement": "IC50", "setting": "curve of compound", "result": "> 10", "unit": "µM"}]}
